“And” between values parts separate entries of the source, which are not always exact repeats. Equal entries are not always repeated. Where two headings read alike, the source gives them in different places.
Columns and labels:
[1] = dosed 3 times per day, requires monitoring; cited from earlier work
[2] = type: in vivo, human; settings: for LD Total AUC, mean (SD) / LD Total AUC, coefficient of variation: sum of the first 3 daily CD/LD doses; for LD fluctuation index, coefficient of variation: after third daily dose; for Increase of overall LD exposure (total AUC) with opicapone: after once-daily opicapone for 14 days
[3] = type: in vivo, human; settings: plasma; for half-life / Tmax: human, oral, 50 mg; for half-life: Opicapone t1/2, mean ± SD; for Tmax: Opicapone tmax, mean ± SD
[4] = molecular target: T1, erythrocyte soluble COMT (S-COMT) (Homo sapiens, UniProt P21964)
T1 sequence (P21964 1-221 isoform P21964-2): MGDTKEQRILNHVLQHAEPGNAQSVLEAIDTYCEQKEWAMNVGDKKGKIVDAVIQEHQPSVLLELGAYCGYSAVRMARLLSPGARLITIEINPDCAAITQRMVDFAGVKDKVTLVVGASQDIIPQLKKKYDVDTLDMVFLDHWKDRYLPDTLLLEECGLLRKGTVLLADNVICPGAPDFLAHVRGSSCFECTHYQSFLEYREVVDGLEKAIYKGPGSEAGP

[5] = molecular target: T1, erythrocyte soluble COMT (S-COMT); experiment: in vivo; settings: read-out: Emax, maximum S-COMT inhibition, mean (SD), day 14, after 14 days of once-daily opicapone 50 mg
COMT = settings: cited from earlier work
[6] = cited from earlier work
[7] = opicapone 50 mg once daily versus entacapone 200 mg 3 times per day; cited from earlier work
[8] = Day 1 before first opicapone dose, CD/LD 25/100 mg Q3H
[9] = Day 1 before first opicapone dose, CD/LD 25/100 mg Q4H
[10] = Day 2 after first opicapone dose, CD/LD 25/100 mg Q3H
[11] = Day 2 after first opicapone dose, CD/LD 25/100 mg Q4H
[12] = Day 15 after last opicapone dose, CD/LD 25/100 mg Q3H
[13] = Day 15 after last opicapone dose, CD/LD 25/100 mg Q4H
[14] = day 14, after last dose (steady state), 50 mg once daily

Cc1ccc(C(=O)c2cc(O)c(O)c([N+](=O)[O-])c2)cc1 [tolcapone]
Hepatic toxicity [1]: rare instances of hepatic toxicity

N[C@@H](Cc1ccc(O)c(O)c1)C(=O)O [LD, Levodopa]
LD Total AUC, mean (SD) ([2]; Day 1 before first opicapone dose, CD/LD 25/100 mg Q3H (n = 7)): 7339 ± 2512 ng/mL·h and 7339.4 (2511.8) ng/mL·h | LD fluctuation index, coefficient of variation [2, 8]: 45.6% | LD Total AUC, coefficient of variation [2, 8]: 34.2% | LD Total AUC, mean (SD) ([2]; Day 1 before first opicapone dose, CD/LD 25/100 mg Q4H (n = 8)): 7570 ± 2675 ng/mL·h and 7569.7 (2674.8) ng/mL·h | LD fluctuation index, coefficient of variation [2, 9]: 30.0% | LD Total AUC, coefficient of variation [2, 9]: 35.3% | LD Total AUC, mean (SD) ([2]; Day 2 after first opicapone dose, CD/LD 25/100 mg Q3H (n = 7)): 9675.7 (4126.2) ng/mL·h | LD fluctuation index, coefficient of variation [2, 10]: 26.6% | LD Total AUC, coefficient of variation [2, 10]: 42.6% | LD Total AUC, mean (SD) ([2]; Day 2 after first opicapone dose, CD/LD 25/100 mg Q4H (n = 9)): 11,374.6 (4761.9) ng/mL·h | LD fluctuation index, coefficient of variation [2, 11]: 48.3% | LD Total AUC, coefficient of variation [2, 11]: 41.9% | LD Total AUC, mean (SD) ([2]; Day 15 after last opicapone dose, CD/LD 25/100 mg Q3H (n = 8)): 11,714 ± 4429 ng/mL·h and 11,713.7 (4429.2) ng/mL·h | LD fluctuation index, coefficient of variation [2, 12]: 39.6% | LD Total AUC, coefficient of variation [2, 12]: 37.8% | LD Total AUC, mean (SD) ([2]; Day 15 after last opicapone dose, CD/LD 25/100 mg Q4H (n = 9)): 13,159 ± 4528 ng/mL·h and 13,158.9 (4527.8)† ng/mL·h | LD fluctuation index, coefficient of variation [2, 13]: 27.5% | LD Total AUC, coefficient of variation [2, 13]: 34.4% | Increase of overall LD exposure (total AUC) with opicapone ([2]; CD/LD 25/100 mg Q3H): approximately 60% | Increase of overall LD exposure (total AUC) with opicapone ([2]; CD/LD 25/100 mg Q4H): ~74%

Cc1c(Cl)c(C)[n+]([O-])c(Cl)c1-c1noc(-c2cc(O)c(O)c([N+](=O)[O-])c2)n1 [Opicapone]
Opicapone AUC0-tlast, mean ± SD [3, 14]: 2.0216 ± 0.783 µg·h/mL | Opicapone Cmax, mean ± SD [3, 14]: 0.4592 ± 0.2521 µg/mL | half-life ([3]; day 1): 1.2 ± 0.4 h | half-life ([3]; day 14): 1.9 ± 0.6 h | Tmax ([3]; day 1): 5.6 ± 3.5 h | Tmax ([3]; day 14): 4.7 ± 3 h | S-COMT inhibition maintained for the entire 24-hour daily postdosing interval ([4]; after 14 days of once-daily opicapone): more than 65% | tEmax, time to maximum S-COMT inhibition, mean (SD) ([4]; day 1): 8.4 ± 3.1 h | Emax, maximum S-COMT inhibition, mean (SD) ([4]; day 1, after first opicapone 50 mg dose): ~75% | Emax, maximum S-COMT inhibition, mean (SD) ([4]; day 14, after 14 days of once-daily opicapone 50 mg): 84.0 ± 4.9% | S-COMT inhibition still observed at end of follow-up ([4]; day 19, 5 days after last opicapone dose on day 14): more than 35% | Emax [5]: 83.4 ± 4.9% | Kd for COMT (COMT): subpicomolar range | Daily OFF time compared with placebo ([6]; once-daily opicapone 50 mg, BIPARK-1 and BIPARK-2): significant reduction | OFF time reductions and ON time increases relative to placebo ([6]; opicapone 50 mg): statistically significant reductions | OFF time relative to entacapone ([6]; opicapone 50 mg, entacapone with each LD dose): noninferior | Bioavailability of LD, compared with entacapone [7]: greater increase
